# Assay results published in patent US20250283178A1, “FOXC1 EXPRESSION AS A COMPLEMENTARY DIAGNOSTIC ASSAY FOR PREDICTING EFFICACY OF ONCOLOGY DRUGS AND DRUG COMBINATION REGIMENS AND METHODS FOR USE” (3N DIAGNOSTICS LTD., priority 2022, published 2025).
# Tests used:
# [1] = system: in vitro FOXC1+ cancer model; conditions: concurrent treatment with Wnt signaling inhibition; Ray et al., 2015b; cited from earlier work
# ER+ breast cancer = conditions: Kornblum et al., 2018; cited from earlier work
# TNBC [2] = conditions: two separate Phase II trials (Jovanovic et al., 2017; Park et al., 2018); cited from earlier work
# leukemia stem cells = conditions: Fukushima et al., 2016; cited from earlier work
# GLI2 = conditions: abrogates leukemia stem cell dormancy; Sadarangani et al., 2015; cited from earlier work
# TNBC [3] = conditions: Raninga et al., 2020; cited from earlier work
# [4] = system: cancer-associated fibroblasts; conditions: Aboulkheyr Es et al., 2020; cited from earlier work
# [5] = system: lung, liver and colon cancer; conditions: combination; Qin et al., 2020; cited from earlier work
# [6] = system: fibroblast activation and tumor-fibroblast crosstalk; conditions: Fujiwara et al., 2020; cited from earlier work
# TGFβ1 = conditions: through a GLI2 inhibitory mechanism; Didiasova et al., 2017; cited from earlier work
# [7] = system: CXCR4-mediated invasion and metastasis; conditions: Pan et al., 2018; cited from earlier work
# prostate cancer = conditions: Gravina et al., 2015; cited from earlier work
# [8] = system: cancer stem cells in AML and glioblastoma; conditions: Hira et al., 2020; cited from earlier work
# [9] = system: HER2-positive breast cancer; conditions: Singh et al., 2013, cited from earlier work
# gastric cancer = conditions: Wang et al., 2016b; cited from earlier work
# [10] = system: breast CSC count in preoperative tumors; conditions: Goldstein et al., 2020; cited from earlier work
# breast cancer = conditions: Ginestier et al., 2010; cited from earlier work
# [11] = system: ER and or PR-positive cells; conditions: Wang et al., 2015; cited from earlier work
# binding of SOX9 to FOXC1 = conditions: Tang et al., 2020; cited from earlier work
# TNBC cells = conditions: cited from earlier work
# [12] = system: ER+LN-breast cancer patients; experiment: Adjuvant chemotherapy added to adjuvant Tamoxifen, all-cause mortality (SCAN-B dataset); type: in vivo, human; conditions: FOXC1 greater than 60th percentile or VERESCA FOXC1 IHC Score of 2; adjuvant Tamoxifen X 5 years with or without adjuvant chemotherapy
# From the text: The prognostic utility of the VERESCA® FOXC1 IHC assay and the VERESCA® FOXC1Clin Criteria recurrence risk score was additionally validated in a second independent clinical trial dataset (SCAN-B) comprising 3207 breast cancer patients for whom clinical, treatment, gene expression data and outcomes data (Overall Survival) were available.
# FOXC1 expression cutoff value was 60th percentile of expression of FOXC1 mRNA on qRTPCR, 60th percentile of expression of FOXC1 mRNA on RNA-Seq, or FOXC1 Score of 2 using VERESCA® FOXC1 IHC kit. FOXC1 expression less than the 60th percentile (FOXC1<60TH % ILE) by mRNA EXPRESSION or <VERESCA® FOXC1 IHC Score of 2 predicts LOW RISK and efficacy of the current standard of care which is adjuvant Tamoxifen X 5 years) in successfully reducing disease recurrence risk, and its resultant impact on all-cause mortality, without the need for additional/adjuvant chemotherapy.
# The ability of the VERESCA® FOXC1Clin criteria recurrence risk score to predict a statistically significant decrease in all-cause mortality rate in the 8-year period post-diagnosis in response to having received adjuvant chemotherapy in addition to adjuvant Tamoxifen therapy was validated in SCAN-B clinical trial dataset (Odds Ratio 6.477 [Cl 2.974-14.107], p=0.0000001).
# TNBC patients = experiment: I-SPY2 neoadjuvant Durvalumab arm, pathologic complete response by MK167+FOXC1 predictor; type: in vivo, human; conditions: Durvalumab Arm: Olaparib+Paclitaxel+Durvalumab
# Method: (§1) Methods. 41 Pre-NACT tumor biopsy MK167 and FOXC1 mRNA expression values were retrospectively obtained from TNBC patients and HER2 negative ER+ breast cancer patients who had been enrolled and treated in the I-SPY2 clinical trial (Durvalumab arm: 21, Control arm: 20) and correlated with the rate of observed pathologic complete response (pCR). The area under the curve (AUC) of each model was calculated and used to determine suitable cutoff values to maximize Negative Predictive Value (NPV) and Sensitivity for pCR prediction.
# as §1, with “TNBC” for “TNBC patients and HER2 negative ER+ breast cancer”
# [13] = system: HER2 negative ER+ breast cancer patients; experiment: as above; type: in vivo, human; conditions: FIG. 16
# Method: as §1
compound,measurement,setting,value
CC(C)C[C@H](NC(=O)[C@H](Cc1ccccc1)NC(=O)c1cnccn1)B(O)O [Bortezomib],emergence of resistant clones / cancer stem cell escape,[1],prevented the emergence of such resistant clones
CO[C@H]1C[C@@H]2CC[C@@H](C)[C@@](O)(O2)C(=O)C(=O)N2CCCC[C@H]2C(=O)O[C@H]([C@H](C)C[C@@H]2CC[C@@H](OCCO)[C@H](OC)C2)CC(=O)[C@H](C)/C=C(\C)[C@@H](O)[C@@H](OC)C(=O)[C@H](C)C[C@H](C)/C=C/C=C/C=C/1C [Everolimus],progression free survival,ER+ breast cancer,prolong progression free survival
same,efficacy,TNBC [2],failed to show any demonstrable efficacy
CN1CC[C@@H](NC(=O)Nc2ccc(C#N)cc2)C[C@@H]1c1nc2ccccc2[nH]1 [Glasdegib],targeting of leukemia stem cells,leukemia stem cells,successfully target leukemia stem cells
same,downstream effect on GLI2,GLI2,GLI2 inhibition
C[C@@]12OC(=O)[C@]1([C@@H](O)[C@@H]1C=CCCC1)NC(=O)[C@@H]2CCCl [Marizomib],development of lung and brain metastasis,TNBC [3],significantly reduced the development of lung and brain metastasis
same,tumor growth,TNBC [3],marked decline in tumor growth
Cc1ccc(=O)n(-c2ccccc2)c1 [Pirfenidone],immunosuppressive capacity of cancer-associated fibroblasts,[4],successful in reducing immunosuppressive capacity
same,therapeutic benefit of PD1/PDL1 immune checkpoint blockade,[5],augment the observed therapeutic benefit
same,fibroblast activation and tumor-fibroblast crosstalk in the TME,[6],capable of inhibiting fibroblast activation and tumor-fibroblast crosstalk
same,fibrosis / TGFβ1,TGFβ1,decrease fibrosis by decreasing TGFβ1
c1cc(CN2CCCNCCNCCCNCC2)ccc1CN1CCCNCCNCCCNCC1 [Plerixafor],CXCR4-mediated invasion and metastasis,[7],successful in reversing the CXCR4-mediated invasion and metastasis
same,incidence of bone metastasis,prostate cancer,successfully reduce the incidence of bone metastasis
same,mobilization of cancer stem cells from their niche,[8],mobilize cancer stem cells from their niche
CC(C)Cc1ccc([C@@H](C)C(=O)NS(C)(=O)=O)cc1 [Repartaxin],breast CSC activity,[9],successfully reduced breast CSC activity
same,therapeutic efficacy in combination,[9]; combined with Lapatinib,enhanced therapeutic efficacy when combined with Lapatinib
same,therapeutic efficacy,gastric cancer,therapeutic efficacy
same,decrease in breast CSC count,[10],more than 20%
same,therapeutic efficacy,breast cancer,therapeutic efficacy
CN(C)C/C=C/C(=O)Nc1ccc(C(=O)Nc2cccc(Nc3ncc(Cl)c(-c4c[nH]c5ccccc45)n3)c2)cc1 [THZ1],effect of treatment on cells,[11],largely unaffected
same,binding of SOX9 to FOXC1 and enhancer/SE-associated transcription factors,binding of SOX9 to FOXC1,significantly disrupted
same,sensitivity of cell proliferation,"TNBC cells; CDK7 inhibitor, Wang et al., 2015",selectively sensitive
same,apoptotic cell death,"TNBC cells; Tang et al., 2020",increasing apoptotic cell death
CC/C(=C(\c1ccccc1)c1ccc(OCCN(C)C)cc1)c1ccccc1 [Tamoxifen],risk of death (all-cause mortality),[12],greater than 24%
Durvalumab,pCR rate,TNBC patients; predicted non-responders (MK167+FOXC1 mRNA),0%
same,pCR rate,TNBC patients; predicted responders (MK167+FOXC1 mRNA),75%
same,pCR rate,[13]; predicted non-responders,15.38%
same,pCR I rate,[13]; predicted responders,38.1%
same,pCR II rate,[13]; predicted responders,62.5%
